Data as given in patent publication US10703764B2, “Benzopiperazine compositions as BET bromodomain inhibitors” (FORMA Therapeutics, Inc., priority 2013, dated 2020).

How the values were obtained:
[1] = target: T1, BRD4 BD1 (Homo sapiens, UniProt O60885); test: AlphaScreen binding assay, BRD4 Bromodomain 1
T1 construct: made in house
Protocol: (§1) The binding of Example compounds to BRD4 Bromodomain 1 and BRD4 Bromodomain 2 was assessed using 384-well AlphaScreen assay technology. His-epitope tagged BRD4 BD144-168 and BRD4 BD2333-460 were cloned, expressed, and purified to homogeneity. BRD4 BD1 and BRD4 BD2 binding and inhibition was assessed by monitoring the engagement of biotinylated Histone H4 (1-21) K5/8/12/16 tetra-acetylated peptide with the targets using the AlphaScreen technology (PerkinElmer). Specifically, in a 384-well black or white flat bottom plate, BRD4 BD1 (50 nM final) or BRD4 BD2 (100 nM final) was combined with peptide (50 nM final for BD1 or 100 nM final for BD2) in 50 mM HEPES (pH 7.3), 100 mM NaCl, 0.1% (w/v) BSA, and 0.01% (w/v) Triton X-100 either in the presence of DMSO (final 1.25% DMSO) or compound dilution series in DMSO. Alpha streptavidin donor beads and Nickel-chelate acceptor beads were added to a final concentration of 10 μg/ml each. After a minimum of 1 hour equilibration, plates were read on a BMG PHERAstar FS multi-label reader (BMG LabTech). The half maximal inhibitory concentration (IC50) values were calculated using IDBS Activity Base software with a four parameter logistic curve fit by the equation y=A+((B−A)/(1+((C/x)^D))), wherein A denotes the bottom plateau of the curve, B denotes the top plateau of the curve, C denotes the x value at the middle of the curve, D denotes the slope factor, x denotes the original known x values, and y denotes the original known y values. Data was fitted using the Levenburg Marquardt algorithm.

[2] = target: T2, BRD4 BD2 (Homo sapiens, UniProt O60885); test: AlphaScreen binding assay, BRD4 Bromodomain 2
T2 construct: made in house
Protocol: as §1

CC(=O)N1c2ccccc2N(S(=O)(=O)C2CC2)C[C@@H]1C [Example I-952]
IC50 [1]: > 10000 nM
IC50 [2]: > 500 nM

CC(=O)N1c2ccc(-c3ccc(C(=O)Nc4ccccc4)cc3)cc2N(C(=O)OC(C)C)C[C@@H]1C [Example I-535]
IC50 [1]: 1000 to 10000 nM
IC50 [2]: 50 to 500 nM

CC(=O)N1c2ccccc2N(Cc2cccc(OCCN(C)C)c2)C[C@@H]1C [Example I-908]
IC50 [1]: > 10000 nM
IC50 [2]: 50 to 500 nM

CC(=O)N1c2ccc(-c3cnn(C4COC4)c3)cc2N(C(=O)OCC(C)(F)F)C[C@@H]1C [Example I-68, (S)-2,2-difluoropropyl 4-acetyl-3-methyl-7-(1-(oxetan-3-yl)-1H-pyrazol-4-yl)-3,4-dihydroquinoxaline-1(2H)-carboxylate]
IC50 [1]: 100 to 1000 nM
IC50 [2]: 50 to 500 nM

COC(=O)N1c2ccc(-c3cnn(C4CNC4)c3)cc2N(C(=O)Oc2cccnc2)C[C@@H]1C [Example I-1295]
IC50 [1]: 1000 to 10000 nM
IC50 [2]: 50 to 500 nM

CC(=O)N1c2ccccc2N(S(=O)(=O)Cc2cccc(Cl)c2)C[C@@H]1C [Example I-955]
IC50 [1]: > 10000 nM
IC50 [2]: > 500 nM

CC(=O)N1c2ccccc2N(C(=O)c2cc3ccncc3o2)C[C@@H]1C [Example I-777]
IC50 [1]: > 10000 nM
IC50 [2]: > 500 nM

CC(=O)N1c2ccc(-c3cnn(C4CC4)c3)nc2N(C(=O)Nc2ccc(F)cc2)C[C@@H]1C [Example I-192, (S)-1-acetyl-6-(1-cyclopropyl-1H-pyrazol-4-yl)-N-(4-fluorophenyl)-2-methyl-2,3-dihydropyrido[2,3-b]pyrazine-4(1H)-carboxamide]
IC50 [1]: > 10000 nM
IC50 [2]: > 500 nM

COC(=O)N1c2ccc(-c3cnn(CC4CCC4)c3)cc2N(C(=O)OC(C)C)C[C@@H]1C [Example I-635]
IC50 [1]: 1000 to 10000 nM
IC50 [2]: > 500 nM

CC(=O)N1c2ccccc2N(C(=O)c2cc3ccccc3s2)C[C@@H]1C [Example I-746]
IC50 [1]: > 10000 nM
IC50 [2]: > 500 nM

COC(=O)N1c2ccc(-c3cnn(CC(C)(C)O)c3)cc2N(C(=O)Oc2ccccn2)C[C@@H]1C [Example I-1321]
IC50 [1]: 1000 to 10000 nM
IC50 [2]: 50 to 500 nM

CC(=O)N1c2ccc(-c3nccn3C)cc2N(C(=O)c2ccco2)C[C@@H]1C [Example I-388]
IC50 [1]: > 10000 nM
IC50 [2]: > 500 nM

CC(=O)N1c2ccc(-c3cnc4ccccn34)cc2N(C(=O)c2ccco2)C[C@@H]1C [Example I-391]
IC50 [1]: 1000 to 10000 nM
IC50 [2]: 50 to 500 nM

C[C@H]1CN(C(=O)c2ccco2)c2cc(-c3ccc(S(C)(=O)=O)cc3)ccc2N1C(=O)N(C)C [Example I-369]
IC50 [1]: > 10000 nM
IC50 [2]: > 500 nM

C[C@H]1CN(C(=O)OC2COC2)c2cc(-c3cnn(C4CC4)c3)ccc2N1C(=O)C1CC1 [Example I-998]
IC50 [1]: 1000 to 10000 nM
IC50 [2]: > 500 nM

CC(=O)N1c2ccccc2N(C(=O)c2ccc(Cl)cc2)C[C@@H]1C [Example I-743]
IC50 [1]: > 10000 nM
IC50 [2]: > 500 nM

CCC1(COC(=O)N2C[C@H](C)N(C(C)=O)c3ccc(-c4cnn(C5COC5)c4)cc32)COC1 [Example I-63, (S)-(3-ethyloxetan-3-yl)methyl 4-acetyl-3-methyl-7-(1-(oxetan-3-yl)-1H-pyrazol-4-yl)-3,4-dihydroquinoxaline-1(2H)-carboxylate]
IC50 [1]: 1000 to 10000 nM
IC50 [2]: 50 to 500 nM

CC(=O)N1c2ccc(-c3ccc(NS(C)(=O)=O)cc3)cc2N(C(=O)Oc2cccnc2)C[C@@H]1C [Example I-1277]
IC50 [1]: 1000 to 10000 nM
IC50 [2]: 50 to 500 nM

C[C@H]1CN(C(=O)c2ccco2)c2cc(-c3ccc(S(C)(=O)=O)cc3)ccc2N1C(=O)C1CCCC1 [Example I-373]
IC50 [1]: > 10000 nM
IC50 [2]: > 500 nM

CC(=O)N1c2ccccc2N(S(=O)(=O)c2cn(C)c(C)n2)C[C@@H]1C [Example I-956]
IC50 [1]: > 10000 nM
IC50 [2]: > 500 nM

COC(=O)N1c2ccc(-c3ccc(S(=O)(=O)CCO)cc3)cc2N(C(=O)C2CC2)C[C@@H]1C [Example I-462]
IC50 [1]: 1000 to 10000 nM
IC50 [2]: 50 to 500 nM

CC(=O)N1c2ccc(-c3cnn(Cc4ccncc4)c3)cc2N(C(=O)C2CC2)C[C@@H]1C [Example I-118, (S)-1-(4-(cyclopropanecarbonyl)-2-methyl-6-(1-(pyridin-4-ylmethyl)-1H-pyrazol-4-yl)-3,4-dihydroquinoxalin-1(2H)-yl)ethanone]
IC50 [1]: 1000 to 10000 nM
IC50 [2]: 50 to 500 nM

CC(=O)N1c2ccccc2N(C(=O)c2ccc3nccn3c2)C[C@@H]1C [Example I-776]
IC50 [1]: > 10000 nM
IC50 [2]: > 500 nM

CC(=O)N1c2ccccc2N(C(=O)c2snnc2C)C[C@@H]1C [Example I-757]
IC50 [1]: > 10000 nM
IC50 [2]: > 500 nM

CC(=O)N1c2ccc(-c3cccc4c3OCC4)cc2N(C(=O)c2ccco2)C[C@@H]1C [Example I-386]
IC50 [1]: 1000 to 10000 nM
IC50 [2]: 50 to 500 nM

CC(=O)N1c2ccccc2N(C(=O)Cc2nc(-c3ccccc3)oc2C)C[C@@H]1C [Example I-769]
IC50 [1]: > 10000 nM
IC50 [2]: > 500 nM

CC(=O)N1c2ccccc2N(Cc2ccncc2)C[C@@H]1C [Example I-912]
IC50 [1]: > 10000 nM
IC50 [2]: > 500 nM

CC(=O)N1c2ccc(-c3ccc(S(C)(=O)=O)cc3)nc2N(C(=O)c2ccco2)C[C@@H]1C [Example I-300]
IC50 [1]: 1000 to 10000 nM
IC50 [2]: 50 to 500 nM

CCOC(=O)N1c2ccc(-c3ccc(S(C)(=O)=O)cc3)cc2N(C(=O)c2ccco2)C[C@@H]1C [Example I-371]
IC50 [1]: > 10000 nM
IC50 [2]: > 500 nM

COC(=O)N1c2ccc(-c3ccc(N4CCCS4(=O)=O)cc3)cc2N(C(=O)Oc2ccccn2)C[C@@H]1C [Example I-1325]
IC50 [1]: 1000 to 10000 nM
IC50 [2]: 50 to 500 nM

CO[C@@H](C(=O)N1C[C@H](C)N(C(C)=O)c2ccccc21)c1ccccc1 [Example I-740]
IC50 [1]: > 10000 nM
IC50 [2]: > 500 nM

CC(=O)N1c2ccc(-c3ccc(S(=O)(=O)CC(=O)N(C)C)cc3)cc2N(C(=O)c2ccco2)C[C@@H]1C [Example I-433]
IC50 [1]: 100 to 1000 nM
IC50 [2]: 50 to 500 nM

CC(=O)N1c2ccc(-c3ccc(S(C)(=O)=O)cc3)cc2N(C(=O)CC#N)C[C@@H]1C [Example I-247]
IC50 [1]: > 10000 nM
IC50 [2]: > 500 nM

COC(=O)N1c2ccc(-c3cnn(CCN(C)C)c3)cc2N(C(=O)OC(C)C)C[C@@H]1C [Example I-645]
IC50 [1]: 1000 to 10000 nM
IC50 [2]: > 500 nM

CC(=O)N1c2ccc(-c3ccc4c(c3)CCN4S(C)(=O)=O)cc2N(C(=O)Oc2cccnc2)C[C@@H]1C [Example I-1290]
IC50 [1]: 1000 to 10000 nM
IC50 [2]: 50 to 500 nM

CC(=O)N1c2ccc(-c3c[nH]nc3C(F)(F)F)cc2N(C(=O)OC(C)C)CC1C (stereo not drawn) [Example I-335]
IC50 [1]: 1000 to 10000 nM
IC50 [2]: > 500 nM

CC(=O)N1c2ccc(-c3ccc(S(C)(=O)=O)cc3)cc2N(c2ncc(-c3ccccc3)cn2)C[C@@H]1C [Example I-50, (S)-1-(2-methyl-6-(4-(methylsulfonyl)phenyl)-4-(5-phenylpyrimidin-2-yl)-3,4-dihydroquinoxalin-1(2H)-yl)ethanone]
IC50 [1]: 1000 to 10000 nM
IC50 [2]: > 500 nM

CC(=O)N1c2ccccc2N(C(=O)c2ccc3c(c2)OCO3)C[C@@H]1C [Example I-701]
IC50 [1]: > 10000 nM
IC50 [2]: > 500 nM

COC(=O)N1c2ccc(-c3ccc(N4CCCS4(=O)=O)cc3)cc2N(C(=O)OC(C)C)C[C@@H]1C [Example I-484]
IC50 [1]: 100 to 1000 nM
IC50 [2]: > 500 nM

CC(=O)N1c2ccc(-c3ccc(S(C)(=O)=O)cc3)cc2N(C(=O)CC2CCCC2)C[C@@H]1C [Example I-246]
IC50 [1]: 1000 to 10000 nM
IC50 [2]: 50 to 500 nM

CCNC(=O)N1C[C@H](C)N(C(C)=O)c2ccc(-c3ccc(S(C)(=O)=O)cc3)cc21 [Example I-965]
IC50 [1]: > 10000 nM
IC50 [2]: > 500 nM

CC(=O)N1c2ccc(-c3cccc(C(=O)NC4CC4)c3)cc2N(C(=O)c2ccco2)C[C@@H]1C [Example I-802]
IC50 [1]: 1000 to 10000 nM
IC50 [2]: < 50 nM

COc1ccccc1CC(=O)N1C[C@H](C)N(C(C)=O)c2ccccc21 [Example I-711]
IC50 [1]: > 10000 nM
IC50 [2]: > 500 nM

CC(=O)N1c2ccc(-c3cnn(C4COC4)c3)cc2N(C(=O)[C@H]2CC2(Cl)Cl)C[C@@H]1C (single isomer, unassigned) [Example I-113]
IC50 [1]: > 10000 nM
IC50 [2]: > 500 nM

CC(=O)N1c2ccc(-c3cnc(N)nc3)cc2N(C(=O)c2ccco2)C[C@@H]1C [Example I-296]
IC50 [1]: 1000 to 10000 nM
IC50 [2]: 50 to 500 nM

CC(=O)N1c2ccccc2N(Cc2cc(C)nn2C)C[C@@H]1C [Example I-905]
IC50 [1]: > 10000 nM
IC50 [2]: > 500 nM

COc1ncc(-c2ccc3c(c2)N(C(=O)c2ccco2)C[C@H](C)N3C(C)=O)cn1 [Example I-834]
IC50 [1]: 1000 to 10000 nM
IC50 [2]: 50 to 500 nM

CC(=O)N1c2ccc(-c3ccc(S(C)(=O)=O)cc3)cc2N(C(=O)c2cc3cc(OC(F)(F)F)ccc3[nH]2)CC1C (stereo not drawn) [Example I-788]
IC50 [1]: > 10000 nM
IC50 [2]: > 500 nM

CC(=O)N1c2ccccc2N(C(=O)c2ccc3ccccc3c2)C[C@@H]1C [Example I-716]
IC50 [1]: > 10000 nM
IC50 [2]: > 500 nM

CC(=O)N1c2ccccc2N(S(=O)(=O)c2cccc(C(F)(F)F)c2)C[C@@H]1C [Example I-947]
IC50 [1]: > 10000 nM
IC50 [2]: > 500 nM

COc1ccccc1C(=O)N1C[C@H](C)N(C(C)=O)c2ccccc21 [Example I-702]
IC50 [1]: > 10000 nM
IC50 [2]: > 500 nM
